These are literature values, as cited in patent US7968723B2, “Compounds, their preparation and use” (High Point Pharmaceuticals, LLC, priority 2004, dated 2011).

Molecules are shown by their SMILES.

Series [1] has as its system high fat diet induced Insulin resistant mice and diabetic ob/ob. The settings on record: PNAS 2003, 100, 15924-15929.
The test system of another series is C2C12 muscle cells. The note with it: in vitro treatment of C2C12 muscle cells; BioChem. Biophys. Acta 2003, 1633, 43-50; Mol. Endocrin. 2003, 17, 2477-2493.

Consider `Cc1cc(SCc2sc(-c3ccc(C(F)(F)F)cc3)nc2C)ccc1OCC(=O)O` [GW501516], for which, in series [1], the insulin sensitivity entry is “improved insulin sensitivity”; the “plasma glucose and insulin” value is “lowering of plasma glucose and insulin”. Further, in the series with C2C12 muscle cells, the “regulation of genes (TG hydrolysis, FFA oxidation, lipid utilization, energy expenditure, lipid efflux)” value was “regulation of genes involved with TG hydrolysis and FFA oxidation”.
